In PubChem BioAssay (NCI):
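All cell lines were grown in 96-well plates and treated with compound for 48 hours. GI50 = concentration required for 50% inhibition of growth. The concentration for full growth arrest is given as TGI.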

Legend:
Assay in all cases: NCI-60 cell line screen, 48 h
RPMI-8226 leukemia = test system: RPMI-8226 leukemia
SK-MEL-28 melanoma = test system: SK-MEL-28 melanoma
KM12 colon = test system: KM12 colon
BT-549 breast = test system: BT-549 breast
NCI-H23 lung = test system: NCI-H23 lung
K-562 leukemia = test system: K-562 leukemia
CAKI-1 renal = test system: CAKI-1 renal
UO-31 renal = test system: UO-31 renal

| SMILES | GI50 (RPMI-8226 leukemia) | TGI (RPMI-8226 leukemia) | GI50 (SK-MEL-28 melanoma) | TGI (SK-MEL-28 melanoma) | GI50 (KM12 colon) | TGI (KM12 colon) | GI50 (BT-549 breast) | TGI (BT-549 breast) | GI50 (NCI-H23 lung) | TGI (NCI-H23 lung) | GI50 (K-562 leukemia) | TGI (K-562 leukemia) | TGI (CAKI-1 renal) | GI50 (UO-31 renal) | TGI (UO-31 renal) | GI50 (CAKI-1 renal) |
| --- | --- | --- | --- | --- | --- | --- | --- | --- | --- | --- | --- | --- | --- | --- | --- | --- |
| CN(CCO)CC[C@H](CSc1ccccc1)Nc1ccc(S(=O)(=O)NC(=O)c2ccc(N3CCC([C@@H](O)c4ccccc4-c4ccc(Cl)cc4)CC3)cc2)cc1S(=O)(=O)C(F)(F)F | 0.16 µM | 2.94 µM | 2.23 µM | 5.11 µM | 3.18 µM | 13.8 µM | 2.69 µM | 11 µM | 17.7 µM | > 100 µM | 3.4 µM | > 100 µM | > 29.2 µM | > 100 µM | > 100 µM | – |
| O.O.[NH-]C1(C(=O)O)CCCC1.[NH-]C1(C(=O)O)CCCC1.[Ni+2] | – | > 100 µM | – | > 100 µM | – | > 100 µM | > 100 µM | > 100 µM | – | > 100 µM | – | > 100 µM | > 100 µM | – | > 100 µM | – |
| OC(Cc1ccncc1)C(Cl)(Cl)Cl (stereo not given) | 0.0586 µM | > 100 µM | > 100 µM | > 100 µM | > 100 µM | > 100 µM | > 100 µM | > 100 µM | 76.3 µM | > 100 µM | > 100 µM | > 100 µM | > 100 µM | > 100 µM | > 100 µM | 32.4 µM |
| O=C1C(Cl)=C(Nc2cccc(Cl)c2)C(=O)N1Cc1ccc(Cl)cc1 | 0.266 µM | 3.37 µM | 3.12 µM | 23.5 µM | 2.83 µM | 14.2 µM | 0.338 µM | 2.84 µM | 0.378 µM | 2.12 µM | 0.858 µM | > 94.1 µM | 13.9 µM | 1.74 µM | 24.5 µM | 0.919 µM |
| CCN(Cc1cc(Nc2nc(C)cn3c(-c4cn[nH]c4)cnc23)sn1)C(C)(C)CO | 2.41 µM | 10.1 µM | 1.41 µM | 14.7 µM | 0.0328 µM | 10.4 µM | 0.0458 µM | 1.18 µM | 0.191 µM | 7.09 µM | – | – | 11.5 µM | 0.0428 µM | 10.1 µM | 0.0358 µM |
| O=C(c1ccccc1)c1ccccc1-c1ccccc1 | 4.91 µM | 52 µM | 7.52 µM | > 100 µM | 1.16 µM | 43.3 µM | 10.3 µM | > 100 µM | 4.46 µM | > 100 µM | – | – | 7.85 µM | 6.99 µM | 98.1 µM | 1.52 µM |
| CCOc1cccc(/C=N/N=C2\C(=O)Nc3c(Cl)cc(Cl)cc32)c1O | – | – | – | > 100 µM | – | > 100 µM | – | > 100 µM | – | > 100 µM | – | > 100 µM | > 100 µM | – | > 100 µM | – |
| COc1ccc(-c2nn(-c3cccc(Cl)c3)cc2-c2cc(-c3cccs3)[nH]c(=S)n2)cc1 | 2.42 µM | 10.9 µM | 3.93 µM | 15.7 µM | 3.67 µM | 14.4 µM | 3.18 µM | 15.9 µM | 3.43 µM | 16.2 µM | 2.91 µM | > 100 µM | 8.68 µM | 2.82 µM | 26.5 µM | 3.03 µM |
| O=C(Nc1ccc([As](=O)(O)O)cc1)Nc1cccc(Cl)c1Cl | – | > 100 µM | – | > 100 µM | – | > 100 µM | – | > 100 µM | – | > 100 µM | – | > 100 µM | > 100 µM | – | > 100 µM | – |
